The values below are quoted from earlier work in patent US20050163759A1, “Compositions and methods for ex vivo preservation of blood vessels for vascular grafts using inhibitors of type I and/or type II phosphodiesterases” (priority 2003, published 2005).

Each structure is given as a SMILES string.

The subject of the data set is endothelial cells. Conditions: stated as known; no experiment described.

For the compound `CCCC(=O)Nc1ncnc2c1ncn2[C@@H]1O[C@@H]2COP(=O)(O)O[C@H]2[C@H]1OC(=O)CCC` [db cAMP, dibutyryl adenosine 3′,5′-cyclic monophosphate], the “db cAMP concentrations that become toxic to endothelial cells” value is on record as “higher than 4 mM”.
